Laboratory results as given in the NIST ThermoML archive (doi:10.1021/acs.jced.5b00116).
Numbers after ± are expanded uncertainties.

Assay: activity coefficient (dimensionless); of the first substance listed, at infinite dilution; wn = mass fraction of the nth substance listed
Settings: 101 kPa, Liquid, Chromatography, w1 = 0

SMILES | activity coefficient (313.15 K) | activity coefficient (333.15 K) | activity coefficient (353.15 K) | activity coefficient (373.15 K) | activity coefficient (393.15 K)
CCO [ethanol] + OCC(O)CO | 4.76 ± 0.5 | 3.98 ± 0.42 | 3.73 ± 0.39 | 3.52 ± 0.37 | 3.25 ± 0.34
O [water] + OCC(O)CO | 0.73 ± 0.08 | 0.75 ± 0.08 | 0.78 ± 0.08 | 0.79 ± 0.08 | 0.8 ± 0.08
